What was measured:
S. aureus 272123 [1] = assay: Efflux pump inhibition assay (real-time ethidium bromide accumulation); assay type: cell-based, Staphylococcus aureus; conditions: compound 50 µM, EB 1 µg/mL, minute 60
Protocol: Compounds 1–20 were assessed for their capability of modulating ethidium bromide (EB) accumulation on two resistant strains. […] However, norA is a core gene of the S. aureus as a species, which means that the NorA pump occurs in all S. aureus strains.
(§1) Salmonella enterica serovar Typhimurium SE03, was used as a Gram-negative bacterium. This strain has a deletion of the acrA gene, which was predicted with the least affinity for the compounds. The aim of these studies was to perform a first screening of these compounds and their ability to modulate the efflux of EB. […] The relative fluorescence index (RFI) was calculated based on the means of relative fluorescence units, depicted in Table 2.
(§2) Compounds 1–20 were evaluated for their ability to inhibit efflux pumps in SE03 and S. aureus 272123 strains, through the real-time fluorimetry, monitoring the intracellular accumulation of EB, an efflux pump substrate. This was determined by the automated method using a CLARIOstar Plus plate reader (BMG Labtech, Ortenberg, Germany). Reserpine and CCCP were applied at 25 µM as positive controls, and the solvent DMSO was applied at 1% v/v. The bacterial strains were incubated in an appropriate culture media (TSB—S. aureus 272123; LB-B—SE03) at 37 °C until they reached an optical density (OD) between 0.4 and 0.6 at λ = 600 nm. The culture was centrifuged at 13,000× g for 3 min, and the pellet washed and resuspended with PBS. The suspension was centrifuged again in the same conditions and resuspended in PBS. The compounds were applied at 50 µM in a solution of a non-toxic concentration of EB (1 µg/mL) in PBS. Then, 50 µL of this solution were transferred into a 96-well black microtiter plate (Greiner Bio-One Hungary Kft, Mosonmagyaróvár, Fertősor, Hungary), and 50 µL of bacterial suspension (OD600 0.4–0.6) were added to each well. The plates were placed into the CLARIOstar plate reader, and the fluorescence was monitored at excitation and emission wavelengths of 530 nm and 600 nm every minute for one hour on a real-time basis. From the real-time data, the activity of the compounds, namely the RFI of the last time point (minute 60) of the EB accumulation assay, was calculated according to the following formula:(1) RFI=RFtreated−RFuntreated/RFuntreated where RFtreated is the relative fluorescence (RF) at the last time point of EB accumulation curve in the presence of the compound, and RFuntreated is the RF at the last time point of the EB accumulation curve of the untreated control, having only the solvent (DMSO) control. The accumulation curves were designed using Microsoft Excel®.

[2] = test system: SE03 (acrA gene-inactivated Salmonella enterica serovar Typhimurium SL1344); assay: as above; assay type: cell-based; conditions: compound 50 µM, EB 1 µg/mL, minute 60
Protocol: as §1, §2

S. aureus ATCC 29213 = assay: Inhibition of biofilm formation (crystal violet); assay type: cell-based, Staphylococcus aureus; conditions: half the MIC, or 100 µM if MIC >100 µM, 48 h, 30 °C
S. aureus 272123 [3] = assay: Inhibition of biofilm formation (crystal violet); assay type: cell-based, Staphylococcus aureus; conditions: half the MIC, or 100 µM if MIC >100 µM, 48 h, 30 °C
Protocol: The biofilm inhibition, presented in percentages (%), was calculated based on the mean of absorbance units.
The bacterial strains used were the Gram-positive S. aureus ATCC 25923 and S. aureus 272123. The detection of the biofilm formation was possible with the use of the dye crystal violet (CV; 0.1% v/v). The initial inoculum was incubated in TSB overnight, and then diluted to an OD600 of 0.1. Then, the bacterial suspension was added to 96-well microtiter plates and the compounds were added at half the MIC. […] The final volume in each well was 200 µL. […] The plates were incubated at 30 °C for 48 h, with gentle stirring (100 rpm). After this incubation period, the TSB medium was discarded, and the plates were washed with tap water to remove unattached cells. Afterwards, 200 µL of a 0.1% v/v CV solution were added to the wells and incubated for 15 min at room temperature. Then, the CV solution was removed from the wells, and the plates were washed again with tap water, and 200 µL of a 70% ethanolic solution were added to the wells. The biofilm formation was determined by measuring the OD600 using a Multiscan EX ELISA plate reader (Thermo Labsystems, Cheshire, WA, USA). The anti-biofilm effect of the compounds was expressed as the percentage (%) of decrease in biofilm formation.

[4] = test system: Chromobacterium violaceum wild type 85 (wt85); assay: Quorum sensing inhibition assay (disk, pigment production); assay type: cell-based; conditions: read-out: Quorum Sensing Inhibition (mm) ± SD
Excerpt: (§3) The sensor strain Chromobacterium violaceum CV026 and the acyl-homoserine lactones (AHLs) producer strain Sphingomonas paucimobilis Ezf 10-17 (EZF) were inoculated as parallel lines, and the AHL producers, Chromobacterium violaceum wild type 85 (wt85) and Serratia marcescens AS-1 were inoculated as a single line.
(§4) For the QS tests, all the bacteria used were Gram-negative. The bacteria used were Chromobacterium violaceum wild type 85 (wt85), characterized by the AHL signal molecule-mediated production of the purple violacein pigment, capable of endogenous QS-signal molecule production (N-hexanoyl-L-HSL), C. violaceum CV026 (CV026), a Tn5 transposase-mutant, AHL-signal molecule indicator strain (produces purple violacein pigment in the presence of AHL), which is incapable of endogenous QS-signal molecule-production, but useful in the detection of external stimuli, Sphingomonas paucimobilis Ezf 10-17 (EZF), AHL-producing-strain (used with C. violaceum CV026), and Serratia marcescens AS-1, characterized by the AHL signal molecule-mediated production of the orange–red pigment prodigiosin (2-methyl-3-pentyl-6-methoxyprodigiosin), capable of endogenous QS-signal molecule production (N-hexanoyl-L-HSL), were applied.
(§5) The QS inhibitory effect of the compounds was examined on the EZF and the sensor CV026 strains, on the wt85 strain, and on S. marcescens, for 4, 5, 11, 12, 16, 19, and 20. The method used was the parallel inoculation method, where pair combinations of the used sensor strain CV026 and the N-acyl-homoserine lactone (AHL)-producing strain EZF were inoculated directly onto the LB*-A agar surface in parallel, at an approximate distance of 5 mm from each other. S. marcescens AS-1 and wt85 were inoculated as a single line. Filter paper disks (7 mm in diameter) were placed on the center of the inoculated line(s) and impregnated with 8 µL of a solution of 10 mM of the compounds. […] The agar plates were incubated at room temperature (20 °C) for 24–48 h. The QS inhibition was accessed visually, through the inhibition of pigment production. The discolored, but intact, bacterial colonies were measured with a ruler.

Serratia marcescens AS-1 = assay: as above; assay type: cell-based; conditions: AS1, read-out: Quorum Sensing Inhibition (mm) ± SD
Excerpt: as §3, §4, §5

[5] = test system: EZF + CV026 (Sphingomonas paucimobilis Ezf 10-17 + Chromobacterium violaceum CV026); assay: Quorum sensing inhibition assay (parallel inoculation, pigment production); assay type: cell-based; conditions: read-out: Quorum Sensing Inhibition (mm) ± SD
Excerpt: as §3, §4, §5

Cytotoxicity assay (MTT) = assay type: cell-based, mouse; conditions: mouse, NIH/3T3 mouse fibroblast cells, 24 h, MTT, read-out: Cytotoxicity IC50 (µM) ± SD
Protocol: In order to apply efflux pump inhibitors to treat patients, several issues should be addressed.
Mouse fibroblasts (NIH/3T3, ATCC CRL-1658TM) were cultivated in DMEM (Gibco 52100-039) and supplemented with 10% heat-inactivated fetal bovine serum (Biowest, VWR International Kft, Debrecen, Hungary), 2 mM of L-glutamine, 1 mM Na pyruvate, 100 U/L and 10 mg/L penicillin/streptomycin mixture (Sigma-Aldrich Chemie GmbH, Steinheim, Germany), respectively, and 0.1% nystatin (8.3 g/L in ethylene glycol). The adherent cells were detached using a combination of 0.25% Trypsin–Versene (EDTA) solution for 5 min at 37 °C. Before each cytotoxicity assay using this cell line, cells were seeded in untreated 96-well flat-bottom microtiter plates, following a 4-h incubation period in a humidified atmosphere (5% CO2, 95% air) at 37 °C [60].
The cytotoxicity of 4, 12, 16, 19, and 20 was assessed in NIH/3T3 cells. The compounds were added to the cells distributed into 96-well flat bottom microtiter plates at concentrations of […] and initially incubated for 24 h, after which a solution of MTT in PBS was added to each well and incubated for another 4 h. The concentrations used were the same as in the MIC assay. After this, 100 μL of SDS (10% in a 0.01 M HCl solution) were added to each well and incubated overnight at 37 °C. Doxorubicin was used as the positive control. Cell growth was determined in quadruplicate by measuring OD at λ = 540 nm (reference 630 nm) in a Multiscan EX ELISA reader (Thermo Labsystems, Cheshire, WA, USA). The percentage of inhibition of cell growth was determined according to the equation: (2) 100−(ODsample−ODmedium control/ODcell control−ODmedium control)×100

| Structure (SMILES) | RFI ± SD (relative fluorescence index) (S. aureus 272123 [1]) | RFI ± SD (relative fluorescence index) [2] | Inhibition of Biofilm Formation (%) ± SD (S. aureus ATCC 29213) | Inhibition of Biofilm Formation (%) ± SD (S. aureus 272123 [3]) | zone of inhibition at 10000 µM [4] | zone of inhibition at 10000 µM (Serratia marcescens AS-1) | zone of inhibition at 10000 µM [5] | IC50 at 24 h (Cytotoxicity assay (MTT)) |
| --- | --- | --- | --- | --- | --- | --- | --- | --- |
| O=c1c2ccccc2oc2c(O)cccc12 [Compound 1] | −0.36 ± 0.03 ^1 | −0.01 ± 0.05 ^6 |  |  |  |  |  |  |
| O=c1c2ccccc2oc2ccc(O)c(O)c12 [Compound 3] | −0.05 ± 0.06 ^3 | 0.23 ± 0.04 ^8 |  |  |  |  |  |  |
| Cc1c(O)cc2oc3ccccc3c(=O)c2c1O [Compound 5] | 0.16 ± 0.08 ^2 | 1.74 ± 0.22 ^7 | 0 ^1% | 61.62 ± 16.51 ^3% | 0 mm | 0 mm | 0 mm |  |
| Cc1cc(O)c(O)c2oc3ccccc3c(=O)c12 [Compound 6] | −0.91 ± 0.01 ^4 | −0.91 ± 0.01 ^9 |  |  |  |  |  |  |
| Cc1cc(O)c(O)c2oc3cc(O)ccc3c(=O)c12 [Compound 7] | −0.92 ± 0.00 ^5 | −0.87 ± 0.02 ^10 |  |  |  |  |  |  |
| COc1cc(C)c2c(=O)c3ccccc3oc2c1OC [Compound 8] | 0.15 ± 0.25 ^4 | 0.05 ± 0.11 ^9 |  |  |  |  |  |  |
| COc1c(Cl)c(C)c2c(=O)c3ccccc3oc2c1OC [Compound 9] | −0.04 ± 0.26 ^4 | 0.05 ± 0.09 ^9 |  |  |  |  |  |  |
| COc1ccc2c(=O)c3c(C)cc(OC)c(OC)c3oc2c1 [Compound 10] | 0.18 ± 0.20 ^5 | 0.24 ± 0.05 ^10 |  |  |  |  |  |  |
| COc1cccc2oc3ccccc3c(=O)c12 [Compound 11] |  |  | 0 ^1% | 39.95 ± 7.66 ^3% | 0 mm | 0 mm | 0 mm |  |
| COc1ccc2c(=O)c3c(CBr)cc(OC)c(OC)c3oc2c1 [Compound 13] | 0.53 ± 0.20 ^5 | 1.16 ± 0.64 ^10 |  |  |  |  |  |  |
| COc1cc(C=O)c2c(=O)c3ccccc3oc2c1O [Compound 14] | −0.28 ± 0.06 ^2 | 0.02 ± 0.02 ^7 |  |  |  |  |  |  |
| COc1cc(C=O)c2c(=O)c3ccccc3oc2c1OC [Compound 15] | 0.08 ± 0.07 ^4 | 0.13 ± 0.09 ^9 |  |  |  |  |  |  |
| COC(=O)c1cc(OC)c(OC)c2oc3cc(OC)ccc3c(=O)c12 [Compound 17] | −0.34 ± 0.02 ^5 | −0.29 ± 0.08 ^10 |  |  |  |  |  |  |
| COc1cc(CNCc2ccc(Cl)cc2)c2c(=O)c3ccccc3oc2c1OC [Compound 18] | −0.01 ± 0.04 ^3 | 0.04 ± 0.04 ^8 |  |  |  |  |  |  |
| COc1cc(CNCc2ccc(F)cc2)c2c(=O)c3ccccc3oc2c1OC [Compound 19] | 0.02 ± 0.02 ^3 | 2.86 ± 0.14 ^8 |  | 65.03 ± 9.86 ^4% | 0 mm | 0 mm | 0 mm | > 100 µM |
| COc1cc(CN[C@H](C)c2ccc(Cl)cc2)c2c(=O)c3ccccc3oc2c1OC [Compound 20] | 1.08 ± 0.82 ^4 | 2.09 ± 0.05 ^11 |  | 77.17 ± 4.45 ^4% | 0 mm | 0 mm | 0 mm | 35.1 ± 4.86 µM |
| COc1cccc2c1C(=O)c1c(O)c3c(c(O)c1C2=O)C[C@@](O)(C(=O)CO)C[C@@H]3O[C@H]1C[C@H](N)[C@H](O)[C@H](C)O1 [Doxorubicin, reference compound] |  |  |  |  |  |  |  | 12.1 ± 0.81 µM |
| CC(CN1c2ccccc2Sc2ccccc21)N(C)C (stereo not drawn) [PMZ, promethazine, reference compound] |  |  |  |  | 41 ± 0.5 mm | 18 ± 0.8 mm | 40 ± 0.1 mm |  |

Reference: publication PMC8158687, “Xanthones Active against Multidrug Resistance and Virulence Mechanisms of Bacteria” (Antibiotics, 2021)
